Data reported in patent publication US9510598B2, “Nitrogen-containing heterocyclic compounds for plant disease control” (BAYER CROPSCIENCE AG, priority 2012, dated 2016).
“And” between values parts separate entries of the source, which are not always exact repeats. Equal entries are not always repeated. Where two headings read alike, the source gives them in different places.

Assays:
[1] = method [a]: pH 2.7, 0.1% formic acid in water / acetonitrile gradient
Method: Measurement of log P values was performed according EEC directive 79/831 Annex V.A8 by HPLC (High Performance Liquid Chromatography) on reversed phase columns with the following methods: ^[a]

[2] = assay type: physicochemical; conditions: method [a]: HPLC/LC-MS on reversed phase at pH 2.7, 0.1% formic acid in water / acetonitrile, linear gradient 10% to 95% acetonitrile
Phytophthora infestans = assay type: in vivo; conditions: 500 ppm; tomato plants sprayed 24 hours before contamination; grading 5 days after contamination vs control plants
Septoria tritici = assay: In vivo preventive test on Septoria tritici (leaf spot on wheat); conditions: 500 ppm; wheat plants sprayed 24 hours before contamination; grading 21 to 28 days after contamination vs control plants
In short: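 Scipion wheat at 1-leaf stage sprayed with compound, controls receiving acetone/tween/DMSO/water vehicle; 24 h later leaves inoculated with Septoria tritici spores (500 000 spores per ml). Efficacy (%) graded versus control plants 21 to 28 days after contamination.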

SMILES | Log P ([1]; Table 2, formula (II)) | also measured
O=C(O)C1(CF)CC(c2ccc3ncc(Br)cc3c2)=NO1 (stereo not drawn) [II-36] | 1.94[a] | 
CCn1nc(C)c(CNC(=O)C2(C)CC(c3ccc4ncc(Br)cc4c3)=NO2)c1C (stereo not drawn) [compound 88] |  | log P [2]: 2.32^[a]; % of efficacy (protection) (Phytophthora infestans): 100%
O=C(O)C1(C2CC2)CC(c2ccc3ncc(Br)cc3c2)=NO1 (stereo not drawn) [II-37] | 2.43[a] | 
COC(=O)C1(C)CC(c2ccc3nc(O)c(Br)cc3c2)=NO1 (stereo not drawn) [II-45] | 1.74[a] | 
CC(O)C1(C(=O)O)CC(c2ccc3ncc(Br)cc3c2)=NO1 (mixture of isomers) [II-77] | 1.60 and 1.65 | 
CCOC(=O)C1(C[Si](C)(C)C)CC(c2ccc3ncc(Br)cc3c2)=NO1 (stereo not drawn) [II-58] | 3.80[a] | 
COC(=O)C1(OC)CC(c2cc3cc(Br)cnc3c(F)c2F)=NO1 (racemic) [II-24] | 3.04[a] | 
COC(=O)C12OCCCC1C(c1ccc3ncc(Br)cc3c1)=NO2 (stereo not drawn) [II-32] | 2.80[a] | 
C#Cc1cnc2c(C)cc(C3=NOC(C)(C(=O)O)C3)cc2c1 (stereo not drawn) [II-81] | 2.30[a] | 
O=C(O)C1(CC2CC2)CC(c2ccc3ncc(Br)cc3c2)=NO1 (stereo not drawn) [II-66] | 2.70[a] | 
CCOC(=O)C1(C)CC(c2ccc3ncccc3c2)=NO1 (racemic) [II-20] | 1.6[a] | 
ON=Cc1cc2cc(Br)cnc2cc1F [V-05] |  | Log P ([1]; Table 3, formula (V)): 2.21[a]
CC1(C(=O)O)CC(c2ccc3nc(Cl)c(Br)cc3c2)=NO1 (stereo not drawn) [II-43] | 2.57[a] | 
COC(=O)C1(C)CC(c2ccc3nc(Cl)c(I)cc3c2)=NO1 (stereo not drawn) [II-60] | 3.34 and 3.62 | 
C#Cc1cnc2c(C)cc(C3=NOC(C)(C(=O)OC)C3)cc2c1 (stereo not drawn) [II-74] | 3.07[a] | 
ON=C(Cl)c1cc2cccnc2c(F)c1F [V-02] |  | Log P ([1]; Table 3, formula (V)): 2.04[a]
COC(=O)C1(C)CC(c2ccc3ncc(I)cc3c2)=NO1 (stereo not drawn) [II-30] | 2.71[a] | 
ON=Cc1cc2cccnc2c(F)c1F [V-01] |  | Log P ([1]; Table 3, formula (V)): 1.48[a]
CC1(C(=O)O)CC(c2ccc3ncc(Br)c(Cl)c3c2)=NO1 (stereo not drawn) [II-96] | 2.34[a] | 
O=C(O)C1(CCl)CC(c2ccc3ncc(Br)cc3c2)=NO1 (racemic) [II-06] | 2.11[a] | 
ON=Cc1cc(F)c2ncc(Br)cc2c1 [V-23] |  | Log P ([1]; Table 3, formula (V)): 2.08[a]
ON=Cc1ccc2ncc(Br)c(Cl)c2c1 [V-21] |  | Log P ([1]; Table 3, formula (V)): 2.43[a]

SMILES | Log P ([1]; Table 2, formula (II)) | also measured
COC(=O)C1(C)ON=C(c2ccc3ncc(Br)cc3c2)C1C (mixture of isomers) [II-15] | 2.94[a] | 
CC1(C(=O)O)CC(c2cc3cc(Br)cnc3cc2F)=NO1 (racemic) [II-07] | 2.14[a] | 
C#Cc1cnc2c(C)cc(C3=NOC(OC)(C(=O)O)C3)cc2c1 (stereo not drawn) [II-93] | 2.07[a] | 
COC(=O)C1(C)CC(c2ccc3ncc(Br)cc3c2)=NO1 (stereo not drawn) [II-33] | 2.69[a] | 
COC(=O)C1(c2ccccc2)CC(c2ccc3ncc(Br)cc3c2)=NO1 (racemic) [II-17] | 2.69[a] | 
COC(=O)C1(C2CC2)CC(c2ccc3ncc(Br)cc3c2)=NO1 (racemic) [II-18] | 3.27[a] | 
C#Cc1cnc2ccc(C3=NOC(C)(C(=O)O)C3)cc2c1 (racemic) [II-10] | 1.71[a] | 
C#Cc1cnc2ccc(C3=NOC(CC)(C(=O)O)C3)cc2c1 (stereo not drawn) [II-69] | 2.05[a] | 
CSC1(C(=O)O)CC(c2ccc3ncc(Br)cc3c2)=NO1 (stereo not drawn) [II-88] | 2.01[a] | 
C#Cc1cnc2c(C)cc(C=NO)cc2c1 [V-15] |  | Log P ([1]; Table 3, formula (V)): 2.21[a]
C#Cc1cnc2ccc(C3=NOC(C)(C(=O)NCc4ccnc(N5CCOCC5)c4)C3)cc2c1 (stereo not drawn) [compound 194] |  | log P [2]: 1.36^[a]; % of efficacy (protection) (Phytophthora infestans): 94%
COc1c(C2=NOC(C)(C(=O)O)C2)cc2cccnc2c1F (racemic) [II-05] | 1.39[a] | 
ON=C(Cl)c1cc(Cl)c2ncc(Br)cc2c1 [V-18] |  | Log P ([1]; Table 3, formula (V)): 3.10[a]
CCOC(=O)C1(OCC)CC(c2ccc3ncc(Br)cc3c2)=NO1 (stereo not drawn) [II-57] | 2.53[a] | 
COC(=O)C1(C)CC(c2cc(Cl)c3ncc(Br)cc3c2)=NO1 (stereo not drawn) [II-76] | 3.29[a] | 
COC(=O)C12ON=C(c3ccc4ncc(Br)cc4c3)C1C2C (stereo not drawn) [II-51] | 3.09[a] | 
COC(=O)C1(C)CC(c2ccc3nc(C#N)c(I)cc3c2)=NO1 (stereo not drawn) [II-68] | 3.02[a] | 
COC(=O)C1(C(F)(F)F)CC(c2ccc3ncc(Br)cc3c2)=NO1 (racemic) [II-14] | 3.4[a] | 
Cc1cc(C(Cl)=NO)cc2cc(Br)cnc12 [V-19] |  | Log P ([1]; Table 3, formula (V)): 3.37[a]
Cc1cc(C=NO)cc2cc(Br)cnc12 [V-16] |  | Log P ([1]; Table 3, formula (V)): 2.61[a]
ON=C(Cl)c1ccc2ncc(I)cc2c1 [V-08] |  | Log P ([1]; Table 3, formula (V)): 2.63[a]
COc1nc2ccc(C3=NOC(C)(C(=O)O)C3)cc2cc1Br (stereo not drawn) [II-38] | 2.64[a] | 

SMILES | Log P ([1]; Table 2, formula (II)) | also measured
ON=Cc1cc(Cl)c2ncc(Br)cc2c1 [V-17] |  | Log P ([1]; Table 3, formula (V)): 2.40[a]
COC(=O)C1(OC)CC(c2ccc3ncc(Br)cc3c2)=NO1 (stereo not drawn) [II-25] | 3.29[a] | 
COC1(C(=O)O)CC(c2ccc3ncc(Br)cc3c2)=NO1 (racemic) [II-04] | 1.73[a] | 
COC1(C(=O)O)CC(c2cc(C)c3ncc(Br)cc3c2)=NO1 (stereo not drawn) [II-92] | 2.42[a] | 
CC1(C(=O)O)CC(c2ccc3nc(C#N)c(I)cc3c2)=NO1 (stereo not drawn) [II-82] | 2.24[a] | 
C=C(C)C1(C(=O)O)CC(c2ccc3ncc(Br)cc3c2)=NO1 (stereo not drawn) [II-73] | 2.52[a] | 
CC1(C(=O)NCc2cnn(Cc3ccccc3)c2)CC(c2ccc3ncc(Br)cc3c2)=NO1 (stereo not drawn) [compound 201] |  | log P [2]: 2.94^[a]; % of efficacy (protection) (Phytophthora infestans): 92%; % of efficacy (protection) (Septoria tritici): 86%
ON=C(Cl)c1cc2cc(Br)cnc2cc1F [V-06] |  | Log P ([1]; Table 3, formula (V)): 2.63[a]
O=C(O)C1(c2ccccc2)CC(c2ccc3ncc(Br)cc3c2)=NO1 (racemic) [II-12] | 2.76[a] | 
CC1(C(=O)O)CC(c2ccc3ncc(Br)cc3c2)=NO1 (racemic) [II-03] | 1.94[a] | 
CCC1(C(=O)O)CC(c2ccc3ncc(Br)cc3c2)=NO1 (stereo not drawn) [II-64] | 2.30[a] | 
CC1(C(=O)O)CC(c2ccc3nc(Cl)c(I)cc3c2)=NO1 (stereo not drawn) [II-83] | 2.59[a] | 
CCOC(=O)C1(OC)CC(c2cc(Cl)c3ncc(Br)cc3c2)=NO1 (stereo not drawn) [II-87] | 3.69[a] | 
CC1(C(=O)O)CC(c2cc(Cl)c3ncc(Br)cc3c2)=NO1 (stereo not drawn) [II-79] | 2.45[a] | 
CCOC(=O)C1(C)ON=C(c2ccc3ncc(Br)cc3c2)C1OCC (stereo not drawn) [II-49] | 3.99[a] | 
ON=C(Cl)c1ccc2ncc(Br)c(Cl)c2c1 [V-22] |  | Log P ([1]; Table 3, formula (V)): 3.16[a]
COC(=O)C1(C(C)O)CC(c2ccc3ncc(Br)cc3c2)=NO1 (mixture of isomers) [II-19] | 2.18[a] | 
C[Si](C)(C)CC1(C(=O)O)CC(c2ccc3ncc(Br)cc3c2)=NO1 (stereo not drawn) [II-54] | 3.42[a] | 
COC(=O)C1ON=C(c2ccc3ncc(Br)cc3c2)C12CC2 (stereo not drawn) [II-41] | 2.71[a] | 
C#Cc1cc2cc(C3=NOC(C)(C(=O)OC)C3)ccc2nc1Cl (stereo not drawn) [II-56] | 3.01[a] | 
N#CC1(C(=O)O)CC(c2ccc3ncc(Br)cc3c2)=NO1 (stereo not drawn) [II-94] | 1.42[a] | 
CCOC(=O)C1(CC)CC(c2ccc3ncc(Br)cc3c2)=NO1 (stereo not drawn) [II-63] | 3.53[a] | 

SMILES | Log P ([1]; Table 2, formula (II)) | also measured
COC(=O)CC1(C(=O)O)CC(c2ccc3ncc(Br)cc3c2)=NO1 (stereo not drawn) [II-50] | 1.98[a] | 
C=C(Cl)C1(C(=O)OC)CC(c2ccc3ncc(Br)cc3c2)=NO1 (stereo not drawn) [II-70] | 3.68[a] | 
O=C(O)C1(CBr)CC(c2ccc3ncc(Br)cc3c2)=NO1 (racemic) [II-11] | 2.19[a] | 
COC(=O)C1(CCl)CC(c2ccc3ncc(Br)cc3c2)=NO1 (racemic) [II-16] | 3.03[a] | 
CCOC(=O)C1(CC)CC(c2ccc3ncc(C#C[Si](C)(C)C)cc3c2)=NO1 (stereo not drawn) [II-67] | 5.19[a] | 
CC1(C(=O)O)CC(c2cc3cc(Br)cnc3c(F)c2F)=NO1 (racemic) [II-02] | 2.25[a] | 
C#Cc1cnc2ccc(C3=NOC(C)(C(=O)NCc4c(C)nn(C(C)C)c4C)C3)cc2c1 (stereo not drawn) [compound 196] |  | log P [2]: 2.32^[a]; % of efficacy (protection) (Phytophthora infestans): 94%
COC(=O)C1(C)CC(c2cc(C)c3ncc(Br)cc3c2)=NO1 (stereo not drawn) [II80] | 3.55[a] | 
CC1(C(=O)O)CC(c2ccc3nc(C#N)c(Br)cc3c2)=NO1 (stereo not drawn) [II-46] | 2.23[a] | 
C#Cc1cc2cc(C3=NOC(C)(C(=O)O)C3)ccc2nc1Cl (stereo not drawn) [II-55] | 2.24[a] | 
C#Cc1cnc2ccc(C3=NOC(C)(C(=O)OC)C3)cc2c1 (stereo not drawn) [II-35] | 2.35[a] | 
C#Cc1cnc2c(C)cc(C3=NOC(OC)(C(=O)OCC)C3)cc2c1 (stereo not drawn) [II-86] | 3.46[a] | 
O=C(O)C1(C(F)(F)F)CC(c2cc3cc(Br)cnc3c(F)c2F)=NO1 (racemic) [II-13] | 2.01[a] | 
COC(=O)C12CCCC1C(c1ccc3ncc(Br)cc3c1)=NO2 (stereo not drawn) [II-31] | 3.23[a] | 
COC(=O)C1(C)CC(c2cc3cccnc3c(F)c2F)=NO1 (stereo not drawn) [II-29] | 2.11[a] | 
C#Cc1cnc2c(Cl)cc(C3=NOC(C)(C(=O)OC)C3)cc2c1 (stereo not drawn) [II-75] | 2.92[a] | 
ON=Cc1ccc2ncc(I)cc2c1 [V-07] |  | Log P ([1]; Table 3, formula (V)): 1.98[a]
ON=Cc1ccc2ncc(Cl)cc2c1 [V-11] |  | Log P ([1]; Table 3, formula (V)): 1.78[a]
ON=Cc1ccc2ncc(I)cc2c1 [V-13] |  | Log P ([1]; Table 3, formula (V)): 2.08[a]
COC1(C(=O)O)CC(c2cc(Cl)c3ncc(Br)cc3c2)=NO1 (stereo not drawn) [II-89] | 2.19[a] | 
CCOC(=O)C1(C)ON=C(c2ccc3ncc(Br)cc3c2)C1CC (stereo not drawn) [II-42] | 3.74[a] | 
C#Cc1cnc2c(Cl)cc(C3=NOC(C)(C(=O)O)C3)cc2c1 (stereo not drawn) [II-78] | 2.20[a] | 
